According to PubChem BioAssay AID330 (DTP/NCI, 2004):
Where “and” joins values, the source holds several entries; their conditions need not be identical. Equal entries are not always repeated. Toxic doses and inconclusive results are not listed. The calls were made as follows: active = survival T/C of 150% or more; inactive = T/C below 125% in these data.

System: P388 leukemia ip, CD2F1 mice, survival T/C
Assay: NCI In Vivo Anticancer Drug Screen. Data for tumor model P388 Leukemia (intraperitoneal) in CD2F1 (CDF1) mice
Conditions: endpoint: median survival time, higher = longer survival
Procedure, shortened: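 Mice carrying the transplanted tumor received test compound or vehicle. Survival was recorded in each group, and the value is the treated-group measurement divided by that of the vehicle-treated control group.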

[1] = dose: 120.0 mg/kg/injection, schedule: Q01DX005 (ip), vehicle: saline with Tween-80
[2] = dose: 240.0 mg/kg/injection, schedule: Q01DX005 (ip), vehicle: saline with Tween-80
[3] = dose: 12.5 mg/kg/injection, schedule: Q04DX003 (ip), vehicle: saline
[4] = dose: 50.0 mg/kg/injection, schedule: Q01DX009 (ip), vehicle: saline
[5] = dose: 100.0 mg/kg/injection, schedule: Q01DX009 (ip), vehicle: saline
[6] = dose: 12.5 mg/kg/injection, schedule: Q01DX009 (ip), vehicle: Klucel (hydroxypropylcellulose) (HPC)
[7] = dose: 50.0 mg/kg/injection, schedule: Q01DX009 (ip), vehicle: Klucel (hydroxypropylcellulose) (HPC)
[8] = dose: 100.0 mg/kg/injection, schedule: Q01DX009 (ip), vehicle: Klucel (hydroxypropylcellulose) (HPC)
[9] = dose: 200.0 mg/kg/injection, schedule: Q01DX009 (ip), vehicle: Klucel (hydroxypropylcellulose) (HPC)
[10] = dose: 50.0 mg/kg/injection, schedule: Q01DX005 (ip), vehicle: saline with Tween-80
[11] = dose: 100.0 mg/kg/injection, schedule: Q01DX005 (ip), vehicle: saline with Tween-80
[12] = dose: 60.0 mg/kg/injection, schedule: Q01DX005 (ip), vehicle: saline with Tween-80

Measured: T/C

Cc1cnc(N/N=C/c2c(CO)cnc(C)c2O)s1
inactive: dose: 7.5 mg/kg/injection, schedule: Q01DX005 (ip), vehicle: Klucel (hydroxypropylcellulose) (HPC) 99 % of control | dose: 15.0 mg/kg/injection, schedule: Q01DX005 (ip), vehicle: Klucel (hydroxypropylcellulose) (HPC) 94 % of control | dose: 30.0 mg/kg/injection, schedule: Q01DX005 (ip), vehicle: Klucel (hydroxypropylcellulose) (HPC) 86 % of control | [1] 93 % of control | [2] 112 % of control

CC1(O)CC23CC(O)C4(O)C(CC(O)C4(C)C)C(C)(O)C2CCC1C3O (centres undefined)
inactive: dose: 0.25 mg/kg/injection, schedule: Q01DX009 (ip), vehicle: Klucel (hydroxypropylcellulose) (HPC) 97 % of control | dose: 0.5 mg/kg/injection, schedule: Q01DX009 (ip), vehicle: Klucel (hydroxypropylcellulose) (HPC) 103 % of control

CC(=O)[O-].[NH2-].[NH2-].[NH2-].[NH2-].[NH2-].[O-][Cl+3]([O-])([O-])O.[Ru+8]
inactive: dose: 3.13 mg/kg/injection, schedule: Q04DX003 (ip), vehicle: saline 118 % of control | dose: 3.13 mg/kg/injection, schedule: Q04DX003 (ip), vehicle: water 99 % of control | dose: 6.25 mg/kg/injection, schedule: Q04DX003 (ip), vehicle: saline 113 % of control | dose: 6.25 mg/kg/injection, schedule: Q04DX003 (ip), vehicle: water 118 % of control | [3] 111 % of control | dose: 12.5 mg/kg/injection, schedule: Q04DX003 (ip), vehicle: water 120 % of control

CC(=O)OC1CC[N+](C)(Cc2ccccc2)C1 (centres undefined)
inactive: [4] 107 % of control | [5] 91 % of control

C1CCC2[N-]CC3CCCCC3[N-]CC3CCCCC3[N-]CC3CCCCC3[N-]CC2C1.[Cu] (centres undefined)
inactive: dose: 0.39 mg/kg/injection, schedule: Q01DX009 (ip), vehicle: saline 105 % of control | dose: 0.78 mg/kg/injection, schedule: Q01DX009 (ip), vehicle: Klucel (hydroxypropylcellulose) (HPC) 121 % of control | dose: 0.78 mg/kg/injection, schedule: Q01DX009 (ip), vehicle: saline 123 % of control | dose: 1.56 mg/kg/injection, schedule: Q01DX009 (ip), vehicle: saline 123 % of control | dose: 1.56 mg/kg/injection, schedule: Q01DX009 (oral), vehicle: Klucel (hydroxypropylcellulose) (HPC) 89 % of control | dose: 3.12 mg/kg/injection, schedule: Q01DX009 (oral), vehicle: Klucel (hydroxypropylcellulose) (HPC) 99 % of control | dose: 6.25 mg/kg/injection, schedule: Q01DX009 (oral), vehicle: Klucel (hydroxypropylcellulose) (HPC) 99 % of control | [6] 119 % of control | dose: 12.5 mg/kg/injection, schedule: Q01DX009 (oral), vehicle: Klucel (hydroxypropylcellulose) (HPC) 93 % of control and 98 % of control | dose: 25.0 mg/kg/injection, schedule: Q01DX009 (oral), vehicle: Klucel (hydroxypropylcellulose) (HPC) 106 % of control and 91 % of control | dose: 50.0 mg/kg/injection, schedule: Q01DX009 (oral), vehicle: Klucel (hydroxypropylcellulose) (HPC) 93 % of control | dose: 100.0 mg/kg/injection, schedule: Q01DX009 (oral), vehicle: Klucel (hydroxypropylcellulose) (HPC) 93 % of control and 98 % of control | dose: 200.0 mg/kg/injection, schedule: Q01DX009 (oral), vehicle: Klucel (hydroxypropylcellulose) (HPC) 88 % of control

CC(=O)N1C=CC(=Cc2ccccc2)C=C1
inactive: [7] 98 % of control | [8] 98 % of control | [9] 99 % of control

COC(=O)C(N)COC(=O)c1ccccc1 (centres undefined)
inactive: dose: 50.0 mg/kg/injection, schedule: Q01DX005 (ip), vehicle: saline 101 % of control | dose: 100.0 mg/kg/injection, schedule: Q01DX005 (ip), vehicle: saline 100 % of control | dose: 200.0 mg/kg/injection, schedule: Q01DX005 (ip), vehicle: saline 100 % of control

FC(F)(F)c1ccccc1NC(=S)SCc1ccccc1
inactive: dose: 50.0 mg/kg/injection, schedule: Q01DX009 (ip), vehicle: suspension in saline 91 % of control | dose: 100.0 mg/kg/injection, schedule: Q01DX009 (ip), vehicle: suspension in saline 90 % of control | dose: 200.0 mg/kg/injection, schedule: Q01DX009 (ip), vehicle: suspension in saline 90 % of control

O=C(O)CS(=O)(=O)CCCCCS(=O)(=O)CC(=O)O
inactive: [4] 106 % of control | [5] 104 % of control | dose: 200.0 mg/kg/injection, schedule: Q01DX009 (ip), vehicle: saline 105 % of control

O=C(O)c1c(Cl)c(Cl)c(Cl)c(Cl)c1-c1c2cc(I)c(=O)c(I)c-2oc2c(I)c(O)c(I)cc12
inactive: dose: 12.5 mg/kg/injection, schedule: Q01DX009 (ip), vehicle: saline 103 % of control | dose: 25.0 mg/kg/injection, schedule: Q01DX009 (ip), vehicle: saline 88 % of control | [10] 92 % of control | [4] 88 % of control and 91 % of control | [11] 86 % of control | [5] 97 % of control

CN1c2ccc(C=O)cc2Sc2cc(C=O)ccc21
inactive: [12] 91 % of control | [1] 91 % of control | [2] 90 % of control

CCOC(=O)Cc1ccccn1
inactive: [8] 109 % of control | [9] 110 % of control | dose: 400.0 mg/kg/injection, schedule: Q01DX009 (ip), vehicle: Klucel (hydroxypropylcellulose) (HPC) 119 % of control

CC([CH2][Sn]([CH3])([Cl])[c]1ccccc1)c1ccccc1 (centres undefined)
inactive: [3] 98 % of control | dose: 25.0 mg/kg/injection, schedule: Q04DX003 (ip), vehicle: saline 103 % of control | dose: 50.0 mg/kg/injection, schedule: Q04DX003 (ip), vehicle: saline 94 % of control | dose: 100.0 mg/kg/injection, schedule: Q04DX003 (ip), vehicle: saline with Tween-80 98 % of control

CC(=S)NC(O)C(=O)c1ccccc1 (centres undefined)
inactive: dose: 50.0 mg/kg/injection, schedule: Q01DX009 (ip), vehicle: saline with Tween-80 121 % of control

O=P(OC1=CCCCC1)(c1ccccc1)c1ccccc1
inactive: [12] 99 % of control | [1] 100 % of control | [2] 97 % of control

O=S(c1ccccc1)c1ccccc1C(O)(C(F)(F)F)C(F)(F)F (centres undefined)
inactive: dose: 100.0 mg/kg/injection, schedule: Q04DX002 (ip), vehicle: Klucel (hydroxypropylcellulose) (HPC) 96 % of control | dose: 200.0 mg/kg/injection, schedule: Q04DX002 (ip), vehicle: Klucel (hydroxypropylcellulose) (HPC) 100 % of control | dose: 400.0 mg/kg/injection, schedule: Q04DX002 (ip), vehicle: Klucel (hydroxypropylcellulose) (HPC) 101 % of control

COC(=O)C1(F)C(=O)NC(=O)NC1O (centres undefined)
inactive: dose: 7.5 mg/kg/injection, schedule: Q01DX005 (ip), vehicle: saline 100 % of control | dose: 15.0 mg/kg/injection, schedule: Q01DX005 (ip), vehicle: saline 102 % of control | dose: 30.0 mg/kg/injection, schedule: Q01DX005 (ip), vehicle: saline 100 % of control

CCOC(=O)c1no[n+]([O-])c1C(=O)OCC
inactive: dose: 6.25 mg/kg/injection, schedule: Q01DX009 (ip), vehicle: Klucel (hydroxypropylcellulose) (HPC) 103 % of control | [6] 105 % of control | dose: 25.0 mg/kg/injection, schedule: Q01DX009 (ip), vehicle: Klucel (hydroxypropylcellulose) (HPC) 101 % of control | [7] 86 % of control

Cc1ccc(C2OC2(C(=O)C=[N+]=[N-])c2ccccc2)cc1 (centres undefined)
inactive: dose: 25.0 mg/kg/injection, schedule: Q01DX005 (ip), vehicle: saline with Tween-80 89 % of control | [10] 92 % of control | [11] 86 % of control | dose: 200.0 mg/kg/injection, schedule: Q01DX005 (ip), vehicle: saline with Tween-80 91 % of control
